Measured values taken from US6749804B2, “Process for treating animal habitats” (H & S Chemical Company, Inc., priority 2000, dated 2004).

Experiments:
poults (turkeys) = test: Turkey grow out in 20,000 Ft^2 poultry house; type: in vivo
Protocol: (§1) The present invention is illustrated by the following Examples however, these Examples are not to be construed as limiting the invention.
4. (Prior art) a poultry house was prepared by cleaning out the used animal bedding (shaved wood chips). The poultry house was then sprayed with a maximum formulation of formaldehyde. After a 72 hour drying period, new shaved wood chips were spread in the poultry house and stocked with 15,000 thousand poults (turkeys). The temperature of the house was maintained at 74°% F±4 degrees F. for the term of the grow out. The term of the grow out was 100 days, average moisture content in the bedding was maintained below 14%. Average relative humidity in the house atmosphere ranged from 40% to 84%.
After two to three weeks, 200 pounds of alum (or aluminum sulfate) was spread evenly on top of the shaved wood chips and dispersed throughout.
5. A poultry house was prepared by spraying all house surfaces (ceiling, walls, and padding/floor) with a solution of 2 pounds of 18.7% formulated TCM per 300 gallons of water. The concentration of the TCM for the washdown was 200 ppm. 12,000 young poults (turkeys) were then placed in the poultry house for a 100-day grow out. The average temperature of the house was maintained at 78° F.±4 degrees for the term of the grow out. The bedding material used was shaved wood chips. Average moisture content in the bedding was maintained below 14%. Average humidity in the house atmosphere ranged from 40% to 68%. The term of the grow out was 100 days.
6. A poultry house was prepared by spraying all house surfaces (ceiling, walls, and padding) after a complete cleanout of previous used wood shavings and manure, with a solution of 2 pounds of 18.7% TCM formulation to 300 gallons of water. The concentration of TCM for the washdown was 200 ppm. 6000 young poults (turkeys) were placed on 3 tons of fresh shaved wood chips in the poultry house. A direct spray-on application of the TCM formulation was sprayed on the new wood shavings and allowed to dry. The solution consisted of 1 pound of formulated TCM to 125 gallons of water or 100 ppm. The average temperature inside the poultry house was maintained at 80 degrees±4 degrees F. for the term of the grow out. Average moisture content in the bedding was maintained below 14%. Average relative humidity in the house atmosphere ranged from 50% to 85%. The term of the grow out was 100 days. The poultry house was retreated via a direct spray-on of the formulated TCM was applied to the bedding material at week 10 of the grow out period for the same batch of turkey poults. The concentration of the TCM in solution was 1 pound of formulated TCM per 125 gallons of water.

chickens = test: Chicken grow out in 20,000 Ft^2 poultry house; type: in vivo
Protocol: as §1
3. (Prior art) A poultry house was prepared by cleaning out the used animal bedding (shaved wood chips) The poultry house was then sprayed with a maximum formulation of formaldehyde. After a 72 hour drying period new shaved wood chips were spread in the poultry house and stocked with 19,000 thousand chickens, temperature of the house was maintained at 74% F±4 degrees F. for the term of the grow out. The terms of the grow out was 45 days, average moisture content in the bedding was maintained below 14%. Average relative humidity in the house atmosphere ranged from 40% to 84%.
After two weeks, 200 pounds of alum (aluminum sulfate) was spread evenly on top of the shaved wood chips and dispersed throughout.
7. A poultry house was prepared by using used bedding material. The used animal bedding (shaved wood chips) and manure had been in use for 18 months without removal. A direct spray on application consisting of a solution of one pound of TCM per 125 gallons of water or 100 ppm was sprayed on top of the used animal bedding. 19,000 young chickens were placed in the poultry house. The average temperature of the house was maintained at 78 degrees F. for the term of the grow out. Average moisture content in the bedding was maintained below 14%. The term of the grow out was 39 days.

salmonella = test: Feces sample from animal bedding tested for salmonella by independent laboratory; conditions: Example 8: 190 ppm TCM washdown; 16,000 poults; feces sample at eight weeks
Protocol: (§2) 8. A turkey house was prepared by spraying all surfaces with a solution of TCM. New wood chip bedding was then applied. The concentration was 10 pounds of TCM in 1,600 gallons of water or 190 ppm., 16,000 young poults (turkeys) were then placed in the poultry house for a 100 day grow out.
(§3) The purpose of this application was to compare e.Coli and salmonella results in a controlled environment as an alternative to formaldehyde, the current sanitizing method used by the poultry industry. At eight weeks of the grow out period after the wash down and the placement of the young poults, a feces sample was acquired from the animal bedding to determine disease levels from both the test poultry house and the control poultry house of Example 1. An independent laboratory tested the two samples.

Other avian diseases = test: Feces sample from animal bedding tested for other avian diseases; conditions: Example 8: 190 ppm TCM washdown; feces sample at eight weeks
Protocol: as §2, §3

e.Coli = test: Feces sample from animal bedding tested for e.Coli by independent laboratory; conditions: Example 8: 190 ppm TCM washdown; 16,000 poults; feces sample at eight weeks
Protocol: as §2, §3

[1] = system: hog waste total bacterial content; test: Percent kill in hog waste mixed with TCM solutions; type: cell-based
Protocol: 9. Test were conducted on hog waste, 3 gallons of hog waste feces, urine and spillage were prepared. […] Various solution samples of TCM solutions were prepared and mixed with the 3 gallon samples. The percent kill of these various samples was in accordance with Table III.

[2] = Example 4 (prior art): formaldehyde spray, new wood chips, 200 pounds of alum after two to three weeks, 15,000 poults, 100 days
[3] = Example 3 (prior art): formaldehyde spray, new wood chips, 200 pounds of alum after two weeks, 19,000 chickens, 45 days
[4] = Example 5: house surfaces sprayed with 200 ppm TCM, 12,000 poults, 100-day grow out
[5] = Example 6: 200 ppm TCM washdown, 100 ppm spray on new wood shavings, retreated at week 10, 6000 poults, 100 days
[6] = Example 7: 100 ppm TCM sprayed on 18 month used bedding, 19,000 chickens, 39 days

## C=O [formaldehyde, reference compound]
Poults (turkeys); [2]
  average weight gain for the turkeys: 21.8 pounds
  bird mortality rate: 8.1%
  birds condemned at the processing facility: 2.3%
chickens; [3]
  average weight gain for the chickens: 3.96 pounds
  bird mortality rate: 3.56%
  percentage of birds condemned at the processing facility: 0.15%

## trichloromelamine [TCM]
salmonella
  salmonella in the animal bedding material: no e.Coli or salmonella
Other avian diseases
  other avian diseases in the animal bedding material: not in the TCM test house
Poults (turkeys); [4]
  bird mortality: 2.7%
  birds condemned at the processing facility: 1.7%
  weight gain for the turkeys: 24.3 pounds
Poults (turkeys); [5]
  bird mortality: 0.7%
  birds condemned at the poultry processing facility: 1.4%
  weight gain for the birds: 23.9 pounds
e.Coli
  e.Coli in the animal bedding material: no e.Coli or salmonella
[1]; 0.25 oz. in 3 gallons of hog waste
  PERCENT KILL: 99.997%
[1]; 0.50 oz. in 3 gallons of hog waste
  PERCENT KILL: 99.9995%
[1]; 0.75 oz. in 3 gallons of hog waste
  PERCENT KILL: 99.998%
[1]; 1.0 oz. in 3 gallons of hog waste
  PERCENT KILL: 99.9998%
[1]; 2.0 oz. in 3 gallons of hog waste
  PERCENT KILL: 99.9996%
[1]; 3.0 oz. in 3 gallons of hog waste
  PERCENT KILL: >99.9998%
[1]; 4.0 oz. in 3 gallons of hog waste
  PERCENT KILL: >99.9998%
chickens; Example 7: 100 ppm TCM on used bedding vs control house treated with alum
  weight gains of the chickens versus control poultry house: insignificant difference
chickens; [6]
  average weight: 4 pounds
  bird mortality rate: 1.1%
  birds condemned at the poultry processing facility: 0.04%
